SMILES strings stand for the structures. pIC50: −log10 of the molar value. Several values for one entry are separate records, joined by “and”; a condition that tells them apart may be missing. Identical values can stand only once.

One may read the pIC50 as −log10 of the IC50, conventionally taken in molar units.

Assay [1] concerns A2780 (ovarian carcinoma). The experiment in a line: WST-1 cell proliferation assay, cytotoxicity screening. The class given is cell-based. The settings on record: Homo sapiens, A2780, 48 h, read-out: growth percent (GP) A2780. The method, boiled down:
(§1)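 Alkaloids were applied at a final 10 μM for 48 h to cells seeded the previous night at line-specific optimal density. Each value averages three independent runs.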
(In general: Tetrazolium dyes change colour on reduction, which living cells bring about.)

Assay [2] concerns A549 (lung carcinoma). Described as above. The class given is cell-based. As to conditions: Homo sapiens, A549, 48 h, read-out: growth percent (GP) A549. The method, boiled down:
as §1

The test system of assay [3] is HT-29 (colorectal adenocarcinoma). Described as above. The class given is cell-based. As to conditions: Homo sapiens, HT-29, 48 h, read-out: growth percent (GP) HT-29. In short, it runs like this: as §1
For assay [4], the system named is HeLa (cervix adenocarcinoma). The assay is described as above. As to conditions: Homo sapiens, 48 h, read-out: growth percent (GP) HeLa. The class given is cell-based. The method, boiled down:
as §1

Assay [5] concerns Jurkat (acute T-cell leukemia). Described as above. As to conditions: Homo sapiens, 48 h, read-out: growth percent (GP) Jurkat. Format: cell-based. In short, it runs like this: as §1
The subject of assay [6] is MRC-5 (nontumor lung fibroblasts). The assay is described as above. The settings on record: Homo sapiens, MRC5, 48 h, read-out: growth percent (GP) MRC-5. Format: cell-based. In short, it runs like this: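 Single-concentration screen: alkaloids at 10 μM final over 48 h, with doxorubicin 1 μM as positive control. Growth is reported relative to untreated cells set at 100%.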

Assay [7] has as its system PANC-1 (pancreas epithelioid carcinoma). Described as above. Format: cell-based. The settings on record: Homo sapiens, PANC-1, 48 h, read-out: growth percent (GP) PANC-1. In short, it runs like this:
as §1

Assay [8] deals with SAOS-2 (osteosarcoma). Described as above. Format: cell-based. As to conditions: Homo sapiens, SAOS-2, 48 h, read-out: growth percent (GP) SAOS-2. In short, it runs like this: as §1
The test system of assay [9] is MCF-7 (breast adenocarcinoma). The assay is described as above. The class given is cell-based, human. The settings on record: Homo sapiens, MCF7, 48 h, read-out: growth percent (GP) MCF-7. The method, boiled down:
as §1

Assay [10] concerns MOLT-4 (acute lymphoblastic leukemia). The assay is described as above. The class given is cell-based, human. As to conditions: Homo sapiens, MOLT-4, 48 h, read-out: growth percent (GP) MOLT-4. The method, boiled down:
as §1

Assay [11] has as its target T1, hAChE (Homo sapiens, UniProt P22303).
T1 construct: purchased University Hradec Kralove, Department of Chemistry, Faculty of Science
The experiment in a line: biochemical. The class given is biochemical. The settings on record: recombinant AChE, Ellman, 37 °C. The protocol:
(§2) The hAChE and hBChE activities were determined using a modified method of Ellman, as described by Hrabinova and co-workers against recombinant AChE and recombinant BChE (purchased from University Hradec Kralove, Department of Chemistry, Faculty of Science).[43] Other used chemicals were phosphate buffer solution (PBS, pH = 7.4), 5,5′-dithio-bis(2-nitrobenzoic) acid (Ellman’s reagent, DTNB), acetylthiocholine iodide (ATChI), butyrylthiocholine iodide (BTChI), and dimethyl sulfoxide (DMSO) (all chemicals were purchased from Sigma-Aldrich, Prague, Czech Republic).
(§3) Briefly, 8.3 μL of the corresponding enzyme, 283 μL of 5 mM DTNB, and 8.3 μL of the sample dilution in DMSO in different concentrations were added to the microplate. These solutions were incubated for 5 min at 37 °C. Then, 33.3 μL of 10 mM substrate (ATChI or BTChI) was added to initiate the reaction, and the whole reaction mixture was incubated for 2 min at 37 °C. […] This difference after 1 min was used to calculate the percentage of inhibitory potential of the given derivative. Each measurement was repeated three times for every concentration of the compound. 8.3 μL DMSO was used as a blank. The % inhibition was calculated according to the following formula: [drawing 3] where ΔABl is the increase of absorbance of the blank sample and ΔASa is the increase of absorbance of the measured sample.

Assay [12] has as its target T2, hBChE (Homo sapiens, UniProt P06276).
T2 construct: purchased University Hradec Kralove, Department of Chemistry, Faculty of Science
The assay can be described thus: biochemical. As to conditions: recombinant BChE, Ellman, 37 °C. Format: biochemical. The method, then: as §2, §3
On the technique in general: DTNB colorimetry detects thiols as they appear.

Assay [13] has as its system nine human tumor and one nontumor cell lines. The assay can be described thus: Cytotoxicity screening across the whole panel of cell lines. Format: cell-based. As to conditions: Homo sapiens, 48 h, read-out: GP value across the tested cell lines.

T1 sequence (P22303 32-614): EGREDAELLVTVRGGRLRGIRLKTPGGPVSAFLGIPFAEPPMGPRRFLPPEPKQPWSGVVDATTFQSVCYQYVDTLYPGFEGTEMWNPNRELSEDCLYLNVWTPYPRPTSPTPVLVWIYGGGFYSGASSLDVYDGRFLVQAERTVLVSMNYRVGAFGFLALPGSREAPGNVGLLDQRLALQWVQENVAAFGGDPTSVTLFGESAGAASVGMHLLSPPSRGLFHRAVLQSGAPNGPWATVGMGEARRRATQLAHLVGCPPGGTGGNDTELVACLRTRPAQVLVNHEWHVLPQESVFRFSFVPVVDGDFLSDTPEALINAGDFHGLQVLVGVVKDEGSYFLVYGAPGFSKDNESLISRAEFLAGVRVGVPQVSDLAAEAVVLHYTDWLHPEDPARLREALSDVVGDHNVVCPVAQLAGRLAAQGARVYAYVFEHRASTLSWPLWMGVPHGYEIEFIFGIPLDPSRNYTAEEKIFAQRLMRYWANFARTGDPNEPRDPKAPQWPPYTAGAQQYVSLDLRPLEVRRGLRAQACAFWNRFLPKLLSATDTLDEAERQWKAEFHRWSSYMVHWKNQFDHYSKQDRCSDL
T2 sequence (P06276 29-602): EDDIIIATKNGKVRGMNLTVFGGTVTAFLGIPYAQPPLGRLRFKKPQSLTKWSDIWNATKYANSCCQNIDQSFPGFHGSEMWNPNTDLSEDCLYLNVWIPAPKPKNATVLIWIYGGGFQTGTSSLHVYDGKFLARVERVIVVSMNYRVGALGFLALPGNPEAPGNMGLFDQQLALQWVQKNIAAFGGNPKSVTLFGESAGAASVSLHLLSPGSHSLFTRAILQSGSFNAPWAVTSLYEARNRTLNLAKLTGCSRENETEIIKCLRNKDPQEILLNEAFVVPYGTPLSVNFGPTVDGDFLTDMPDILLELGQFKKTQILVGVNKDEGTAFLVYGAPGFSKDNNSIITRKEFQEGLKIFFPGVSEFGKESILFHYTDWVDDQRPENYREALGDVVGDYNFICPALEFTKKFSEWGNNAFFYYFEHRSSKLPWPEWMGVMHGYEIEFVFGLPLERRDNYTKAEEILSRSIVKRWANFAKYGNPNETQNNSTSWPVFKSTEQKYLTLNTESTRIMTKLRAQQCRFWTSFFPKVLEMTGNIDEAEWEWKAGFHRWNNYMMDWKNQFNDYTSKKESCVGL

As to `COc1ccc2c3c1O[C@H]1C[C@@H](O)CC[C@@]31CCNC2` [Compound 7, norlycoramine], the activity at 10 µM in assay [1] came out at 97%; in assay [2], 103%; in assay [3], 100%; in [4] it was 98%; in [5], 103%; in assay [6], 98%. For the same compound, the activity at 10 µM in [7] is 103%; in assay [8], 97%; in assay [9], 97%; in [10], 99%; in [13] it was above 50%. Also, the negative logarithm of the IC50 (pIC50) in assay [11] was < 4.00 and 3.81; in assay [12] it was below 4.00.

For the compound `COc1cc2c(c(O)c1OC)[C@@]13CC[C@H](O)C[C@@H]1N(CC3)C2O` (some centres unmarked) [Compound 8, zephyranine C], the activity at 10 µM in [1] turned out to be 105%; in [2] it was 117%; in [3] it was 121%; in assay [4], 117%; in assay [5], 109%; in assay [6] it was 100%. Moreover, the activity at 10 µM in [7] was 110%; in [8] it was 111%; in [9] it was 112%; in assay [10], 98%; in assay [13] it was above 50%. Also, the pIC50 in assay [11] and in assay [12] was below 4.00 each time.
